Experimental data published in ChEMBL document CHEMBL1201861, “Genomics of Drug Sensitity in Cancer screening data, Wellcome Trust Sanger Institute”.

What was measured:
CP50-MEL-B = test: cells; assay type: functional, cell-based; conditions: Homo sapiens;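 note: growth inhibition of the human cell line, measured with a cell viability read-out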
Description: SANGER: Inhibition of human CP50-MEL-B cell growth in a cell viability assay.

Ca9-22 = test: cells; assay type: functional, cell-based; conditions: Homo sapiens;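 note: growth inhibition of Ca9-22 cells, read out with a cell viability assay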
Description: SANGER: Inhibition of human Ca9-22 cell growth in a cell viability assay.

DMS-273 = test: cells; assay type: functional, cell-based; conditions: Homo sapiens
Description: SANGER: Inhibition of human DMS-273 cell growth in a cell viability assay.

DOK = test: cells; assay type: functional, cell-based; conditions: Homo sapiens;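 note: cell viability assay read-out, values reflect inhibition of cell growth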
Description: SANGER: Inhibition of human DOK cell growth in a cell viability assay.

HCC1395 = test: cells; assay type: functional, cell-based; conditions: Homo sapiens;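 note: growth inhibition of HCC1395 cells, read out by a cell viability assay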
Description: SANGER: Inhibition of human HCC1395 cell growth in a cell viability assay.

HGC-27 = test: cells; assay type: functional, cell-based; conditions: Homo sapiens;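 note: growth inhibition of human HGC-27 cells, read out in a cell viability assay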
Description: SANGER: Inhibition of human HGC-27 cell growth in a cell viability assay.

HSC-2 = test: cells; assay type: functional, cell-based; conditions: Homo sapiens;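 note: growth inhibition of human HSC-2 cells, read out by a cell viability assay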
Description: SANGER: Inhibition of human HSC-2 cell growth in a cell viability assay.

HT-29 = test: cells; assay type: functional, cell-based; conditions: Homo sapiens;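 note: growth inhibition of human HT-29 cells, read out by a cell viability assay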
Description: SANGER: Inhibition of human HT-29 cell growth in a cell viability assay.

Huh-7 = test: cells; assay type: functional, cell-based; conditions: Homo sapiens;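 note: HuH-7 cell growth inhibition, read out with a cell viability assay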
Description: SANGER: Inhibition of human HuH-7 cell growth in a cell viability assay.

IGR-1 = test: cells; assay type: functional, cell-based; conditions: Homo sapiens;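 note: growth inhibition of human IGR-1 cells, read out with a cell viability assay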
Description: SANGER: Inhibition of human IGR-1 cell growth in a cell viability assay.

KOSC-2 = test: cells; assay type: functional, cell-based; conditions: Homo sapiens;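 note: growth inhibition of KOSC-2 cells, read out by a cell viability assay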
Description: SANGER: Inhibition of human KOSC-2 cell growth in a cell viability assay.

M059J = test: cells; assay type: functional, cell-based; conditions: Homo sapiens;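 note: growth inhibition of M059J cells, read out with a cell viability assay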
Description: SANGER: Inhibition of human M059J cell growth in a cell viability assay.

MC-IXC = test: cells; assay type: functional, cell-based; conditions: Homo sapiens;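 note: growth inhibition of MC-IXC cells, read out with a cell viability assay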
Description: SANGER: Inhibition of human MC-IXC cell growth in a cell viability assay.

MDA-MB-157 = test: cells; assay type: functional, cell-based; conditions: Homo sapiens
Description: SANGER: Inhibition of human MDA-MB-157 cell growth in a cell viability assay.

NB17 = test: cells; assay type: functional, cell-based, Homo sapiens; conditions: Homo sapiens, NB17;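 note: growth inhibition of NB17 cells, read out with a cell viability assay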
Description: SANGER: Inhibition of human NB17 cell growth in a cell viability assay.

NCI-H1563 = test: cells; assay type: functional, cell-based; conditions: Homo sapiens;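 note: growth inhibition of human NCI-H1563 cells, read out with a cell viability assay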
Description: SANGER: Inhibition of human NCI-H1563 cell growth in a cell viability assay.

NCI-H1623 = test: cells; assay type: functional, cell-based; conditions: Homo sapiens;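 note: cell viability assay used as the read-out for growth inhibition of NCI-H1623 cells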
Description: SANGER: Inhibition of human NCI-H1623 cell growth in a cell viability assay.

NCI-H2122 = test: cells; assay type: functional, cell-based; conditions: Homo sapiens;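 note: growth inhibition of the cells, read out with a cell viability assay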
Description: SANGER: Inhibition of human NCI-H2122 cell growth in a cell viability assay.

NCI-H2170 = test: cells; assay type: functional, cell-based; conditions: Homo sapiens;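 note: cell viability assay measuring growth inhibition of human NCI-H2170 cancer cells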
Description: SANGER: Inhibition of human NCI-H2170 cell growth in a cell viability assay.

NCI-H2452 = test: cells; assay type: functional, cell-based; conditions: Homo sapiens;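 note: growth inhibition of NCI-H2452 cells, read out with a cell viability assay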
Description: SANGER: Inhibition of human NCI-H2452 cell growth in a cell viability assay.

NCI-H596 = test: cells; assay type: functional, cell-based; conditions: Homo sapiens;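 note: growth inhibition of NCI-H596 cells, read out with a cell viability assay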
Description: SANGER: Inhibition of human NCI-H596 cell growth in a cell viability assay.

NCI-H661 = test: cells; assay type: functional, cell-based; conditions: Homo sapiens;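 note: cell viability assay read-out, IC50 being the concentration that inhibits growth of the cells by half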
Description: SANGER: Inhibition of human NCI-H661 cell growth in a cell viability assay.

NUGC-3 = test: cells; assay type: functional, cell-based; conditions: Homo sapiens;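 note: growth inhibition of human NUGC-3 cells, read out with a cell viability assay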
Description: SANGER: Inhibition of human NUGC-3 cell growth in a cell viability assay.

OAW-28 = test: cells; assay type: functional, cell-based; conditions: Homo sapiens;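 note: growth inhibition of OAW-28 cells, read out with a cell viability assay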
Description: SANGER: Inhibition of human OAW-28 cell growth in a cell viability assay.

OE19 = test: cells; assay type: functional, cell-based; conditions: Homo sapiens;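 note: growth inhibition of OE19 cells, measured through a cell viability read-out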
Description: SANGER: Inhibition of human OE19 cell growth in a cell viability assay.

PANC-03-27 = test: cells; assay type: functional, cell-based; conditions: Homo sapiens
Description: SANGER: Inhibition of human PANC-03-27 cell growth in a cell viability assay.

PC-14 = test: cells; assay type: functional, cell-based; conditions: Homo sapiens;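 note: cell viability assay measuring inhibition of PC-14 cell growth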
Description: SANGER: Inhibition of human PC-14 cell growth in a cell viability assay.

PFSK-1 = test: cells; assay type: functional, cell-based; conditions: Homo sapiens;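 note: cell viability assay measuring how strongly compounds suppress growth of human PFSK-1 cells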
Description: SANGER: Inhibition of human PFSK-1 cell growth in a cell viability assay.

RD = test: cells; assay type: functional, cell-based; conditions: Homo sapiens
Description: SANGER: Inhibition of human RD cell growth in a cell viability assay.

SCC-25 = test: cells; assay type: functional, cell-based; conditions: Homo sapiens;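 note: growth inhibition of SCC-25 cells, measured with a cell viability assay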
Description: SANGER: Inhibition of human SCC-25 cell growth in a cell viability assay.

SCC-9 = test: cells; assay type: functional, cell-based; conditions: Homo sapiens;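 note: Read-out is a cell viability assay, with values giving inhibition of cell growth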
Description: SANGER: Inhibition of human SCC-9 cell growth in a cell viability assay.

SK-MEL3 = test: cells; assay type: functional, cell-based, SK-MEL-3; conditions: Homo sapiens;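 note: growth inhibition of human SK-MEL-3 cells, read out with a cell viability assay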
Description: SANGER: Inhibition of human SK-MEL-3 cell growth in a cell viability assay.

SK-MEL-30 = test: cells; assay type: functional, cell-based; conditions: Homo sapiens;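 note: growth inhibition of SK-MEL-30 cells, determined with a cell viability assay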
Description: SANGER: Inhibition of human SK-MEL-30 cell growth in a cell viability assay.

SKG-IIIa = test: cells; assay type: functional, cell-based; conditions: Homo sapiens;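 note: cell growth inhibition, read out with a cell viability assay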
Description: SANGER: Inhibition of human SKG-IIIa cell growth in a cell viability assay.

SW1710 = test: cells; assay type: functional, cell-based; conditions: Homo sapiens;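 note: growth inhibition of SW1710 cells, determined with a cell viability assay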
Description: SANGER: Inhibition of human SW1710 cell growth in a cell viability assay.

SW1990 = test: cells; assay type: functional, cell-based; conditions: Homo sapiens
Description: SANGER: Inhibition of human SW1990 cell growth in a cell viability assay.

5637 = test: cells; assay type: functional, cell-based; conditions: Homo sapiens
Description: SANGER: Inhibition of human 5637 cell growth in a cell viability assay.

AN3-CA = test: cells; assay type: functional, cell-based; conditions: Homo sapiens;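 note: growth inhibition of human AN3-CA cells measured by a cell viability assay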
Description: SANGER: Inhibition of human AN3-CA cell growth in a cell viability assay.

AU565 = test: cells; assay type: functional, cell-based; conditions: Homo sapiens;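 note: cell viability assay measuring growth inhibition of human AU565 cells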
Description: SANGER: Inhibition of human AU565 cell growth in a cell viability assay.

BFTC-905 = test: cells; assay type: functional, cell-based; conditions: Homo sapiens
Description: SANGER: Inhibition of human BFTC-905 cell growth in a cell viability assay.

CAL-33 = test: cells; assay type: functional, cell-based; conditions: Homo sapiens;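 note: growth inhibition of CAL-33 cells, read out with a cell viability assay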
Description: SANGER: Inhibition of human CAL-33 cell growth in a cell viability assay.

CAL-62 = test: cells; assay type: functional, cell-based; conditions: Homo sapiens;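 note: growth inhibition of CAL-62 cells, read out with a cell viability assay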
Description: SANGER: Inhibition of human CAL-62 cell growth in a cell viability assay.

CAPAN-1 = test: cells; assay type: functional, cell-based; conditions: Homo sapiens;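 note: growth suppression of CAPAN-1 cells, read out by a cell viability assay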
Description: SANGER: Inhibition of human CAPAN-1 cell growth in a cell viability assay.

COR-L279 = test: SANGER: Inhibition of human COR-L279 cell growth in a cell viability assay.; assay type: functional, cell-based; conditions: Homo sapiens, COR-L279
D-336MG = test: cells; assay type: functional, cell-based, Homo sapiens; conditions: Homo sapiens, D-336MG
Description: SANGER: Inhibition of human D-336MG cell growth in a cell viability assay.

HCC1599 = test: cells; assay type: functional, cell-based, Homo sapiens; conditions: Homo sapiens, HCC1599;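 note: growth inhibition of HCC1599 cells, read out in a cell viability assay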
Description: SANGER: Inhibition of human HCC1599 cell growth in a cell viability assay.

IMR-5 = test: cells; assay type: functional, cell-based, Homo sapiens; conditions: Homo sapiens, IMR-5; read-out: IC50;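 note: growth inhibition of human IMR-5 cells, read out with a cell viability assay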
Description: SANGER: Inhibition of human IMR-5 cell growth in a cell viability assay.

LU-165 = test: cells; assay type: functional, cell-based, Homo sapiens; conditions: Homo sapiens, LU-165
Description: SANGER: Inhibition of human LU-165 cell growth in a cell viability assay.

NCCIT = test: SANGER: Inhibition of human NCCIT cell growth in a cell viability assay.; assay type: functional, cell-based; conditions: Homo sapiens, NCCIT
NCI-H716 = test: cells; assay type: functional, cell-based, Homo sapiens; conditions: Homo sapiens, NCI-H716;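 note: growth inhibition of human NCI-H716 cells, measured by a cell viability assay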
Description: SANGER: Inhibition of human NCI-H716 cell growth in a cell viability assay.

NCI-H748 = test: cells; assay type: functional, cell-based, Homo sapiens; conditions: Homo sapiens, NCI-H748;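 note: growth inhibition of NCI-H748 cells, measured by a cell viability assay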
Description: SANGER: Inhibition of human NCI-H748 cell growth in a cell viability assay.

REH = test: cells; assay type: functional, cell-based, Homo sapiens; conditions: Homo sapiens, REH;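 note: growth inhibition of REH cells determined with a cell viability read-out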
Description: SANGER: Inhibition of human REH cell growth in a cell viability assay.

CA46 = test: cells; assay type: functional, cell-based, Homo sapiens; conditions: Homo sapiens, CA46;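 note: growth inhibition of human CA46 cells, read out by a cell viability assay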
Description: SANGER: Inhibition of human CA46 cell growth in a cell viability assay.

CAL-148 = test: cells; assay type: functional, cell-based, Homo sapiens; conditions: Homo sapiens, CAL-148
Description: SANGER: Inhibition of human CAL-148 cell growth in a cell viability assay.

THP-1 = test: cells; assay type: functional, cell-based, Homo sapiens; conditions: Homo sapiens, THP-1;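 note: growth inhibition of THP-1 cells, read out via a cell viability assay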
Description: SANGER: Inhibition of human THP-1 cell growth in a cell viability assay.

CHP-126 = test: cells; assay type: functional, cell-based, Homo sapiens; conditions: Homo sapiens, CHP-126
Description: SANGER: Inhibition of human CHP-126 cell growth in a cell viability assay.

CMK = test: cells; assay type: functional, cell-based, Homo sapiens; conditions: Homo sapiens, CMK;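 note: growth inhibition of CMK cells, read out as cell viability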
Description: SANGER: Inhibition of human CMK cell growth in a cell viability assay.

SMILES: CN(C)CCOc1ccc(-c2nc(-c3ccncc3)c(-c3ccc4c(c3)CC/C4=N\O)[nH]2)cc1 [SB590885]
- IC50 (CP50-MEL-B): 1.73 µM
- IC50 (Ca9-22): > 5 µM
- IC50 (DMS-273): > 5 µM
- IC50 (DOK): > 5 µM
- IC50 (HCC1395): > 5 µM
- IC50 (HGC-27): > 5 µM
- IC50 (HSC-2): > 5 µM
- IC50 (HT-29): > 5 µM
- IC50 (Huh-7): 3.67 µM
- IC50 (IGR-1): > 5 µM
- IC50 (KOSC-2): > 5 µM
- IC50 (M059J): > 5 µM
- IC50 (MC-IXC): > 5 µM
- IC50 (MDA-MB-157): > 5 µM
- IC50 (NB17): > 5 µM
- IC50 (NCI-H1563): > 5 µM
- IC50 (NCI-H1623): > 5 µM
- IC50 (NCI-H2122): > 5 µM
- IC50 (NCI-H2170): > 5 µM
- IC50 (NCI-H2452): > 5 µM
- IC50 (NCI-H596): > 5 µM
- IC50 (NCI-H661): > 5 µM
- IC50 (NUGC-3): > 5 µM
- IC50 (OAW-28): > 5 µM
- IC50 (OE19): > 5 µM
- IC50 (PANC-03-27): > 5 µM
- IC50 (PC-14): > 5 µM
- IC50 (PFSK-1): > 5 µM
- IC50 (RD): > 5 µM
- IC50 (SCC-25): > 5 µM
- IC50 (SCC-9): > 5 µM
- IC50 (SK-MEL3): 0.818 µM
- IC50 (SK-MEL-30): 1.55 µM
- IC50 (SKG-IIIa): > 5 µM
- IC50 (SW1710): > 5 µM
- IC50 (SW1990): > 5 µM
- IC50 5637: > 5 µM
- IC50 (AN3-CA): > 5 µM
- IC50 (AU565): > 5 µM
- IC50 (BFTC-905): > 5 µM
- IC50 (CAL-33): > 5 µM
- IC50 (CAL-62): > 5 µM
- IC50 (CAPAN-1): > 5 µM

SMILES: C[C@@H](Oc1cc(-c2cnn(C3CCNCC3)c2)cnc1N)c1c(Cl)ccc(F)c1Cl [CRIZOTINIB]
- IC50 (COR-L279): > 2 µM
- IC50 (D-336MG): > 2 µM
- IC50 (HCC1599): > 2 µM
- IC50 (IMR-5): > 2 µM
- IC50 (LU-165): > 2 µM
- IC50 (NB17): > 2 µM
- IC50 (NCCIT): > 2 µM
- IC50 (NCI-H716): > 2 µM
- IC50 (NCI-H748): > 2 µM
- IC50 (REH): > 2 µM
- IC50 (CA46): > 2 µM
- IC50 (CAL-148): > 2 µM
- IC50 (THP-1): > 2 µM
- IC50 (CHP-126): > 2 µM
- IC50 (CMK): 1.96 µM

SMILES: NC(=O)c1cccc(-c2cc(Nc3ccc(OC(F)(F)F)cc3)ncn2)c1
- IC50 (COR-L279): > 1.28 µM
- IC50 (D-336MG): > 1.28 µM
- IC50 (HCC1599): > 1.28 µM
- IC50 (IMR-5): > 1.28 µM
- IC50 (LU-165): > 1.28 µM
- IC50 (NB17): > 1.28 µM
- IC50 (NCCIT): > 1.28 µM
- IC50 (NCI-H716): > 1.28 µM
- IC50 (NCI-H748): > 1.28 µM
- IC50 (REH): > 1.28 µM
- IC50 (CA46): > 1.28 µM
- IC50 (CAL-148): > 1.28 µM
- IC50 (THP-1): > 1.28 µM
- IC50 (CHP-126): > 1.28 µM
- IC50 (CMK): > 1.28 µM

SMILES: C=CC(=O)N1CCCC(Nc2nc(Nc3ccc(N(C)C(=O)CC)cc3)nc3[nH]cnc23)C1 (stereo unspecified)
- IC50 (COR-L279): > 10.2 µM
- IC50 (D-336MG): 8 µM
- IC50 (HCC1599): > 10.2 µM
- IC50 (IMR-5): > 10.2 µM
- IC50 (LU-165): > 10.2 µM
- IC50 (NB17): > 10.2 µM
- IC50 (NCCIT): > 10.2 µM
- IC50 (NCI-H716): > 10.2 µM
- IC50 (NCI-H748): > 10.2 µM
- IC50 (REH): > 10.2 µM
- IC50 (CA46): > 10.2 µM
- IC50 (CAL-148): > 10.2 µM
- IC50 (THP-1): > 10.2 µM
- IC50 (CHP-126): > 10.2 µM
- IC50 (CMK): > 10.2 µM

SMILES: CC(C)C[C@H](NC(=O)[C@H](Cc1ccccc1)NC(=O)c1cnccn1)B(O)O [BORTEZOMIB]
- IC50 (COR-L279): > 0.02 µM
- IC50 (D-336MG): 0.000657 µM
- IC50 (HCC1599): 0.0119 µM
- IC50 (IMR-5): > 0.02 µM
- IC50 (LU-165): > 0.02 µM
- IC50 (NB17): 0.00204 µM
- IC50 (NCCIT): 0.0184 µM
- IC50 (NCI-H716): > 0.02 µM
- IC50 (NCI-H748): 0.00239 µM
- IC50 (REH): > 0.02 µM
- IC50 (CA46): > 0.02 µM
- IC50 (CAL-148): > 0.02 µM
- IC50 (THP-1): > 0.02 µM
- IC50 (CHP-126): 0.00506 µM
- IC50 (CMK): 0.00129 µM

SMILES: NC1(c2ccc(-c3nc4ccn5c(=O)[nH]nc5c4cc3-c3ccccc3)cc2)CCC1 [MK-2206]
- IC50 (CP50-MEL-B): > 4 µM
- IC50 (Ca9-22): > 4 µM
- IC50 (DMS-273): 1.52 µM
- IC50 (DOK): 3.23 µM
- IC50 (HCC1395): 2.75 µM
- IC50 (HGC-27): 0.568 µM
- IC50 (HSC-2): > 4 µM
- IC50 (HT-29): > 4 µM
- IC50 (Huh-7): 3.09 µM
- IC50 (IGR-1): > 4 µM
- IC50 (KOSC-2): > 4 µM
- IC50 (M059J): > 4 µM
- IC50 (MC-IXC): > 4 µM
- IC50 (MDA-MB-157): > 4 µM
- IC50 (NB17): > 4 µM
- IC50 (NCI-H1563): 0.482 µM
- IC50 (NCI-H1623): 3.41 µM
- IC50 (NCI-H2122): > 4 µM
- IC50 (NCI-H2170): > 4 µM
- IC50 (NCI-H2452): > 4 µM
- IC50 (NCI-H596): > 4 µM
- IC50 (NCI-H661): > 4 µM
- IC50 (NUGC-3): > 4 µM
- IC50 (OAW-28): 2.3 µM
- IC50 (OE19): > 4 µM
- IC50 (PANC-03-27): > 4 µM
- IC50 (PC-14): > 4 µM
- IC50 (PFSK-1): > 4 µM
- IC50 (RD): > 4 µM
- IC50 (SCC-25): > 4 µM
- IC50 (SCC-9): > 4 µM
- IC50 (SK-MEL3): > 4 µM
- IC50 (SK-MEL-30): > 4 µM
- IC50 (SKG-IIIa): > 4 µM
- IC50 (SW1710): 3.47 µM
- IC50 (SW1990): > 4 µM
- IC50 5637: > 4 µM
- IC50 (AN3-CA): 3.62 µM
- IC50 (AU565): > 4 µM
- IC50 (BFTC-905): > 4 µM
- IC50 (CAL-33): > 4 µM
- IC50 (CAL-62): > 4 µM
- IC50 (CAPAN-1): > 4 µM
